Laboratory results taken from patent US6737383B1, “Herbicidal oxadiazolidines” (priority 1999, dated 2004).

Columns and labels:
maize hybrid P33G26 = assay: Test G maize injury with safener-treated seed; details: in vivo
Description: In soil-containing pots were planted seeds of maize hybrid P33G26 that was previously treated with dichlomid, fenchlorazole-ethyl, and naphthalic anhydride (or no safener). The soil surface was then treated with several rates of Compound 131 or Compound 146 dissolved in a non-phytotoxic solvent using a flat-fan sprayer calibrated to deliver 310 L/ha. Treatmemtes were replicated 4 or 5 times. The treated and untreated plants were allowed to grow in a greenhouse using supplementary artificial lighting with a day-length of 14 hours, with the temperature maintained at about 27° C. during the day and 24° C. during the night. Plants were kept watered with a dilute balanced fertilizer solution.
At 28 days after application, the treated plants were compared with untreated controls and vissually evaluated.

sugar beet = assay: Test B pre/postemergence sugar beet; format: in vivo, Beta vulgaris
Outline: (§1)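 Test chemicals in a non-phytotoxic solvent mixture with surfactant were sprayed preemergence onto planted seeds and postemergence onto plants 2 to 18 cm tall (1- to 4-leaf stage). After twelve to sixteen days in a greenhouse, injury was visually rated against untreated controls from 0 (no effect) to 10 (complete control).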

corn = assay: Test B pre/postemergence corn; format: in vivo, Zea mays
Outline: as §1

velvetleaf = assay: Test B pre/postemergence velvetleaf; format: in vivo, Abutilon theophrasti
Outline: as §1

crabgrass = assay: Test B pre/postemergence crabgrass; format: in vivo, Digitaria sanguinalis
Outline: as §1

wheat = assay: Test B pre/postemergence wheat; format: in vivo, Triticum aestivum
Outline: as §1

smallflower flatsedge = assay: Test B flood test smallflower flatsedge; format: in vivo, Cyperus difformis
Outline: (§2)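 Each value is a visual injury score relative to controls, with 10 meaning complete control and 0 no effect. Evaluation took place twelve to sixteen days after the 2-leaf-stage plants were treated and kept in the greenhouse.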

pigweed = assay: Test B pre/postemergence pigweed; format: in vivo, Amaranthus retroflexus
Outline: as §1

surinam grass = assay: Test B pre/postemergence surinam grass; format: in vivo, Brachiaria decumbens
Outline: as §1

blackgrass = assay: Test B pre/postemergence blackgrass; format: in vivo, Alopecurus myosuroides
Outline: as §1

purple nutsedge = assay: Test B pre/postemergence purple nutsedge; format: in vivo, Cyperus rotundus
Outline: as §1

bamyardgrass = assay: Test B flood test barnyardgrass; format: in vivo, Echinochloa crus-galli
Outline: as §2

morningglory = assay: Test B pre/postemergence morningglory; format: in vivo, Ipomoea hederacea
Outline: as §1

wild oat = assay: Test B pre/postemergence wild oat; format: in vivo, Avena fatua
Outline: as §1

soybean = assay: Test B pre/postemergence soybean; format: in vivo, Glycine max
Outline: as §1

rice = assay: Test B flood test rice; format: in vivo, Oryza sativa
Outline: as §2

giant foxtail = assay: Test B pre/postemergence giant foxtail; format: in vivo, Setaria faberii
Outline: as §1

bedstraw = assay: Test B pre/postemergence bedstraw; format: in vivo, Galium aparine; details: Postemergence, Rate 125 g/ha; scale 0 to 10, 0 is no effect, 10 is complete control
Outline: as §1

duck salad = assay: Test B flood test duck salad; format: in vivo, Heteranthera limosa
Outline: as §2

rape = assay: Test B pre/postemergence rape; format: in vivo, Brassica napus
Outline: as §1

cocklebur = assay: Test B pre/postemergence cocklebur; format: in vivo, Xanthium strumarium
Outline: as §1

[1] = Postemergence, Rate 125 g/ha, scale 0 to 10, 0 is no effect, 10 is complete control
[2] = Postemergence, Rate 500 g/ha, scale 0 to 10, 0 is no effect, 10 is complete control
[3] = Preemergence, Rate 62 g/ha, scale of 0 to 10 where 0 is no effect and 10 is complete control
[4] = Preemergence, Rate 125 g/ha, scale 0 to 10, 0 is no effect, 10 is complete control
[5] = Preemergence, Rate 500 g/ha, scale 0 to 10, 0 is no effect, 10 is complete control
[6] = Rate 62 g/ha, Postemergence, scale 0 to 10 (0 no effect, 10 complete control)
[7] = Postemergence, Rate 250 g/ha, scale 0 to 10
[8] = Rate 62 g/ha, flood test species, Pre-emergence, visual evaluation after twelve to sixteen days
[9] = Rate 125 g/ha, under heading Pre-emergence, flood test species, visual evaluation after twelve to sixteen days
[10] = Rate 250 g/ha, Pre-emergence (flood test species), scale 0 to 10, 0 is no effect, 10 is complete control
[11] = Rate 500 g/ha, Pre-emergence section of Table B, 0 to 10 scale (0 no effect, 10 complete control)
[12] = Preemergence, Rate 250 g/ha, scale 0 to 10, 0 is no effect, 10 is complete control

O=C1OC(=O)c2cccc3cccc1c23 [naphthalic anhydride, reference compound]
Effect of safener seed treatment on corn germination (maize hybrid P33G26): severely inhibited corn germination
Safening effect on maize injury (maize hybrid P33G26): safened against the herbicide damage

CC(C)N(C(=O)n1oc(=O)n(CC(=O)C2CC2)c1=O)c1ccc(F)cc1F [Compound 490]
Sugarbeets plant response rating (sugar beet; [1]): 0
Plant response rating, Sugarbeets (sugar beet; [2]): 0
Plant response rating, Sugarbeets (sugar beet; [3]): 0
Sugarbeets plant response rating (sugar beet; [4]): 0
Sugarbeets plant response rating (sugar beet; [5]): 5
Sugarbeets plant response rating (sugar beet; [6]): 0
Corn plant response rating (corn; [1]): 0
Corn plant response rating (corn; [7]): 0
Plant response rating, Corn (corn; [2]): 0
Plant response rating, Corn (corn; [3]): 0
Corn plant response rating (corn; [4]): 0
Corn plant response rating (corn; [5]): 5
Corn plant response rating (corn; [6]): 0
Velvetleaf plant response rating (velvetleaf; [1]): 0
Plant response rating, Velvetleaf (velvetleaf; [2]): 1
Plant response rating, Velvetleaf (velvetleaf; [3]): 0
Velvetleaf plant response rating (velvetleaf; [4]): 0
Velvetleaf plant response rating (velvetleaf; [5]): 4
Velvetleaf plant response rating (velvetleaf; [6]): 0
Crabgrass plant response rating (crabgrass; [1]): 6
Crabgrass plant response rating (crabgrass; [7]): 6
Plant response rating, Crabgrass (crabgrass; [2]): 7
Plant response rating, Crabgrass (crabgrass; [3]): 8
Crabgrass plant response rating (crabgrass; [4]): 9
Crabgrass plant response rating (crabgrass; [5]): 10
Crabgrass plant response rating (crabgrass; [6]): 3
Wheat plant response rating (wheat; [1]): 0
Plant response rating, Wheat (wheat; [2]): 0
Plant response rating, Wheat (wheat; [3]): 0
Wheat plant response rating (wheat; [4]): 0
Wheat plant response rating (wheat; [5]): 4
Wheat plant response rating (wheat; [6]): 0
Plant response rating, S. Flatsedge (0 to 10 scale, 0 is no effect, 10 is complete control) (smallflower flatsedge; [8]): 0
S. Flatsedge plant response rating (0 to 10 scale, 0 is no effect, 10 is complete control) (smallflower flatsedge; [9]): 0
S. Flatsedge plant response rating (smallflower flatsedge; [10]): 0
S. Flatsedge plant response rating (smallflower flatsedge; [11]): 0
Redroot pigweed plant response rating (pigweed; [1]): 0
Plant response rating, Redroot pigweed (pigweed; [2]): 2
Plant response rating, Redroot pigweed (pigweed; [3]): 5
Redroot pigweed plant response rating (pigweed; [4]): 7
Redroot pigweed plant response rating (pigweed; [5]): 8
Redroot pigweed plant response rating (pigweed; [6]): 0
B. signalgrass plant response rating (surinam grass; [1]): 4
B. signalgrass plant response rating (surinam grass; Postemergence, Rate 250 g/ha, scale 0 to 10, 0 no effect, 10 complete control): 4
Plant response rating, B. signalgrass (surinam grass; [2]): 7
Plant response rating, B. signalgrass (surinam grass; [3]): 3
B. signalgrass plant response rating (surinam grass; [4]): 5
B. signalgrass plant response rating (surinam grass; [12]): 6
B. signalgrass plant response rating (surinam grass; [5]): 8
B. signalgrass plant response rating (surinam grass; [6]): 2
Blackgrass plant response rating (blackgrass; [1]): 4
Plant response rating, Blackgrass (blackgrass; [2]): 5
Plant response rating, Blackgrass (blackgrass; [3]): 7
Blackgrass plant response rating (blackgrass; [4]): 8
Blackgrass plant response rating (blackgrass; [12]): 9
Blackgrass plant response rating (blackgrass; [5]): 9
Blackgrass plant response rating (blackgrass; [6]): 2
Nutsedge plant response rating (purple nutsedge; [1]): 0
Plant response rating, Nutsedge (purple nutsedge; [2]): 0
Plant response rating, Nutsedge (purple nutsedge; [3]): 0
Nutsedge plant response rating (purple nutsedge; [4]): 0
Nutsedge plant response rating (purple nutsedge; [5]): 0
Nutsedge plant response rating (purple nutsedge; [6]): 0
Plant response rating, Barnyardgrass (0 to 10 scale, 0 is no effect, 10 is complete control) (bamyardgrass; [8]): 0
Barnyardgrass plant response rating (0 to 10 scale, 0 is no effect, 10 is complete control) (bamyardgrass; [9]): 0
Barnyardgrass plant response rating (bamyardgrass; [10]): 0
Barnyardgrass plant response rating (bamyardgrass; [11]): 0
Morningglory plant response rating (morningglory; [1]): 3
Plant response rating, Morningglory (morningglory; [2]): 3
Plant response rating, Morningglory (morningglory; [3]): 0
Morningglory plant response rating (morningglory; [4]): 0
Morningglory plant response rating (morningglory; [5]): 0
Morningglory plant response rating (morningglory; [6]): 2
Wild oats plant response rating (wild oat; [1]): 5
Plant response rating, Wild oats (wild oat; [2]): 7
Plant response rating, Wild oats (wild oat; [3]): 6
Wild oats plant response rating (wild oat; [4]): 7
Wild oats plant response rating (wild oat; [5]): 8
Wild oats plant response rating (wild oat; [6]): 5
Soybean plant response rating (soybean; [1]): 5
Plant response rating, Soybean (soybean; [2]): 6
Plant response rating, Soybean (soybean; [3]): 0
Soybean plant response rating (soybean; [4]): 0
Soybean plant response rating (soybean; [5]): 4
Soybean plant response rating (soybean; [6]): 4
Plant response rating, Rice (0 to 10 scale, 0 is no effect, 10 is complete control) (rice; [8]): 0
Rice plant response rating (0 to 10 scale, 0 is no effect, 10 is complete control) (rice; [9]): 0
Rice plant response rating (rice; [10]): 0
Rice plant response rating (rice; [11]): 0
Giant foxtail plant response rating (giant foxtail; [1]): 8
Plant response rating, Giant foxtail (giant foxtail; [2]): 8
Plant response rating, Giant foxtail (giant foxtail; [3]): 9
Giant foxtail plant response rating (giant foxtail; [4]): 9
Giant foxtail plant response rating (giant foxtail; [5]): 10
Giant foxtail plant response rating (giant foxtail; [6]): 2
Bedstraw plant response rating (bedstraw): 3
Plant response rating, Ducksalad (0 to 10 scale, 0 is no effect, 10 is complete control) (duck salad; [8]): 0
Ducksalad plant response rating (0 to 10 scale, 0 is no effect, 10 is complete control) (duck salad; [9]): 0
Ducksalad plant response rating (duck salad; [10]): 0
Ducksalad plant response rating (duck salad; [11]): 0
Rape plant response rating (rape; [1]): 0
Plant response rating, Rape (rape; [2]): 0
Plant response rating, Rape (rape; [3]): 0
Rape plant response rating (rape; [4]): 1
Rape plant response rating (rape; [5]): 8
Rape plant response rating (rape; [6]): 0
Cocklebur plant response rating (cocklebur; [1]): 0
Cocklebur plant response rating (cocklebur; [7]): 0
Plant response rating, Cocklebur (cocklebur; [2]): 0
Cocklebur plant response rating (cocklebur; [4]): 0
Cocklebur plant response rating (cocklebur; [12]): 0
Cocklebur plant response rating (cocklebur; [6]): 0
